Results on 19 compounds are retold here after patent US11591355B2 (Peloton Therapeutics, Inc., priority 2017, dated 2023).

SMILES strings stand for the structures. Where only a bound is given, the exact number is not on record here.

For assay [1], the target named is T1, CD73 on U138 human neuroglioma cells (Homo sapiens, UniProt P21589).
T1 construct: U138 cells were obtained from ATCC and cultured in DMEM with 10% FBS; host or cells: U138 human neuroglioma cells
T1 sequence (P21589 27-549): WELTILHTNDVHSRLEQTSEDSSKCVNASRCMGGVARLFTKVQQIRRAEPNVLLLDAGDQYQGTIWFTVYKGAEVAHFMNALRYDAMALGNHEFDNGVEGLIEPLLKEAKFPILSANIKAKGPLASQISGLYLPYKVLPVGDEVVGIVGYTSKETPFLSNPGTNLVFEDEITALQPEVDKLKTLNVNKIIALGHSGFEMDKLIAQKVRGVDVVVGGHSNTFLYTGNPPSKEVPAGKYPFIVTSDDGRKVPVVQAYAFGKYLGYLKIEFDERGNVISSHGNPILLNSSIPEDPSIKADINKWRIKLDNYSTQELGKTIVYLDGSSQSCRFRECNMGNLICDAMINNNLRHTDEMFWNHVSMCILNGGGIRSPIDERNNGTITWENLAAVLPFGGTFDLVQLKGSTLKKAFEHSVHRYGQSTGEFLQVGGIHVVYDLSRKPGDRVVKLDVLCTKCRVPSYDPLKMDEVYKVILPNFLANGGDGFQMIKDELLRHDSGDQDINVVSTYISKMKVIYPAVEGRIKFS
Nature of the assay: CD73 Cell-Based Assay. The conditions noted are these: U138 cells, AMP substrate, 2 hours at 37° C., inorganic phosphate by malachite green. The procedure: U138 human neuroglioma cells were used in these experiments. U138 cells were obtained from ATCC and cultured in DMEM with 10% FBS. 2500 cells were seeded into 96-well plate with 100 μL of media the day before the experiment. Cells were washed twice with 200 μL of assay buffer (20 mM HEPES, pH 7.4; 137 mM NaCl; 5.4 mM KCl; 1.3 mM CaCl2); 4.2 mM NaHCO3; 1 mg/mL glucose) to remove residual inorganic phosphate. After washing, 100 μL of buffer was added to each well, then 100 μL of a mixture of AMP substrate (200 μM) and diluted compound was added to each well. The cells were incubated at 37° C. (with 5% CO2) for 2 hours. 50 μL of supernatant was transferred to a 96-well assay plate and the concentration of inorganic phosphate was determined using malachite green reagent (R&D System; Cat: DY996).

The next assay deals with T2, Human CD73 (Homo sapiens, UniProt P21589).
T2 construct: purchased R&D Systems; host or cells: CHO cells
T2 sequence (P21589 27-549): T1 sequence (P21589 27-549)
Nature of the assay: CD73 Enzyme Assay. The class given is biochemical. As to conditions: 0.25 nM hCD73, 25 μM AMP, kinetic read at 360 nm; read-out: CD73 Enzyme Assay IC50.

Take `O=P(O)(O)COC[C@H]1O[C@@H](n2cnc3c(N4Cc5ccccc5C4)nc(Cl)nc32)[C@H](O)[C@@H]1O` [Compound 54, [(2R,3S,4R,5R)-5-(2-chloro-6-isoindolin-2-yl-purin-9-yl)-3,4-dihydroxy-tetrahydro-furan-2-yl]methoxy-methylphosphonic acid]: the IC50 (in assay [1]; at Human CD73) was 10 to 100 nM in each case.

On to `O=P(O)(O)COC[C@H]1O[C@@H](n2cnc3c(OC4CCCC4)ncnc32)[C@H](O)[C@@H]1O` [Compound 55, [(2R,3S,4R,5R)-5-[6-(cyclopentoxy)purin-9-yl]-3,4-dihydroxy-tetrahydrofuran-2-yl]-methoxymethylphos-phonic acid], for which the IC50 is > 1000 nM in assay [1] and 100 to 1000 nM on Human CD73.

On to `O=P(O)(O)COC[C@H]1O[C@@H](n2ccc3c(NCc4ccccc4)nc(Cl)nc32)[C@H](O)[C@@H]1O` [Compound 56, [(2R,3S,4R,5R)-5-[4-(benzylamino)-2-chloro-pyrrolo[2,3-d]-pyrimidin-7-yl]-3,4-dihydroxy-tetrahydro-furan-2-yl]methoxy-methylphosphonic acid], for which the IC50 (in assay [1]; at Human CD73) was 10 to 100 nM each time.

For the compound `O=P(O)(O)COC[C@H]1O[C@@H](n2cnc3c(NCc4ccccc4)cc(Cl)nc32)[C@H](O)[C@@H]1O` [Compound 57, [(2R,3S,4R,5R)-5-[7-(benzylamino)-5-chloro-imidazo[4,5-b]pyridin-3-yl]-3,4-dihydroxy-tetrahydrofuran-2-yl]methoxymethylphosphonic acid], the IC50 (in assay [1]; at Human CD73) was 100 to 1000 nM throughout.

Regarding `C[C@H](Nc1nc(Cl)nc2c1ccn2[C@@H]1O[C@H](COCP(=O)(O)O)[C@@H](O)[C@H]1O)c1ccccc1` [Compound 60, [(2R,3S,4R,5R)-5-[2-chloro-4-[[(1S)-1-phenylethyl]amino]-pyrrolo[2,3-d]-pyrimidin-7-yl]-3,4-dihydroxy-tetrahydro-furan-2-yl]methoxy-methylphosphonic acid], the IC50 in assay [1] was 10 to 100 nM; at Human CD73, < 10 nM.

`C[C@@H](Nc1nc(Cl)nc2c1ccn2[C@@H]1O[C@H](COCP(=O)(O)O)[C@@H](O)[C@H]1O)c1ccccc1` [Compound 61, [(2R,3S,4R,5R)-5-[2-chloro-4-[[(1R)-1-phenylethyl]amino]pyrrolo[2,3-d]pyrimidin-7-yl]-3,4-dihydroxy-tetrahydrofuran-2-yl]methoxymethylphosphonic acid]: the IC50 (in assay [1]; at Human CD73) was < 10 nM throughout.

For the compound `C[C@@H](Nc1nc(C#N)nc2c1ccn2[C@@H]1O[C@H](COCP(=O)(O)O)[C@@H](O)[C@H]1O)c1ccccc1` [Compound 62, [(2R,3S,4R,5R)-5-[2-cyano-4-[[(1R)-1-phenylethyl]amino]pyrrolo[2,3-d]pyrimidin-7-yl]-3,4-dihydroxy-tetrahydrofuran-2-yl]methoxymethylphosphonic acid], the IC50 (in assay [1]; on Human CD73) was < 10 nM throughout.

As to `C[C@H](Nc1nc(C#N)nc2c1ccn2[C@@H]1O[C@H](COCP(=O)(O)O)[C@@H](O)[C@H]1O)c1ccccc1` [Compound 67, [(2R,3S,4R,5R)-5-[2-cyano-4-[[(1S)-1-phenylethyl]amino]-pyrrolo[2,3-d]-pyrimidin-7-yl]-3,4-dihydroxy-tetrahydro-furan-2-yl]methoxy-methylphosphonic acid], the IC50 was < 10 nM in assay [1] and 10 to 100 nM at Human CD73.

On to `C[C@H](Nc1nc(Cl)nc2c1ccn2[C@@H]1O[C@H](COCP(=O)(O)O)[C@@H](O)[C@H]1O)c1ccc(F)cc1` [Compound 68, [(2R,3S,4R,5R)-5-[2-chloro-4-[[(1S)-1-(4-fluorophenyl)ethyl]-amino]pyrrolo[2,3-d]-pyrimidin-7-yl]-3,4-dihydroxy-tetrahydro-furan-2-yl]methoxy-methylphosphonic acid], for which the IC50 (in assay [1]; at Human CD73) was 10 to 100 nM in each case.

For the compound `C[C@@H](Nc1nc(Cl)nc2c1ccn2[C@@H]1O[C@H](COCP(=O)(O)O)[C@@H](O)[C@H]1O)c1ccc(F)cc1` [Compound 69, [(2R,3S,4R,5R)-5-[2-chloro-4-[[(1R)-1-(4-fluorophenyl)ethyl]-amino]pyrrolo[2,3-d]-pyrimidin-7-yl]-3,4-dihydroxy-tetrahydro-furan-2-yl]methoxy-methylphosphonic acid], the IC50 (in assay [1]; at Human CD73) was < 10 nM in each case.

As to `O=P(O)(O)COC[C@H]1O[C@@H](n2ccc3c(NC4CCCC4)nc(Cl)nc32)[C@H](O)[C@@H]1O` [Compound 70, [(2R,3S,4R,5R)-5-[2-chloro-4-(cyclopentylamino)pyrrolo[2,3-d]pyrimidin-7-yl]-3,4-dihydroxy-tetrahydrofuran-2-yl]methoxymethylphosphonic acid], the IC50 (in assay [1]; on Human CD73) was < 10 nM each time.

For `N#Cc1nc(NC2CCCC2)c2ccn([C@@H]3O[C@H](COCP(=O)(O)O)[C@@H](O)[C@H]3O)c2n1` [Compound 71, [(2R,3S,4R,5R)-5-[2-cyano-4-(cyclopentyl-amino)pyrrolo[2,3-d]-pyrimidin-7-yl]-3,4-dihydroxy-tetrahydro-furan-2-yl]methoxy-methylphosphonic acid], the IC50 (in assay [1]; at Human CD73) was < 10 nM in each case.

In the case of `C[C@H](Nc1nc(C#N)nc2c1ccn2[C@@H]1O[C@H](COCP(=O)(O)O)[C@@H](O)[C@H]1O)c1ccc(F)cc1` [Compound 72, [(2R,3S,4R,5R)-5-[2-cyano-4-[[(1S)-1-(4-fluorophenyl)ethyl]-amino]pyrrolo[2,3-d]-pyrimidin-7-yl]-3,4-dihydroxy-tetrahydro-furan-2-yl]methoxy-methylphosphonic acid], the IC50 (in assay [1]; at Human CD73) was < 10 nM in each case.

In the case of `C[C@@H](Nc1nc(C#N)nc2c1ccn2[C@@H]1O[C@H](COCP(=O)(O)O)[C@@H](O)[C@H]1O)c1ccc(F)cc1` [Compound 73, [(2R,3S,4R,5R)-5-[2-cyano-4-[[(1R)-1-(4-fluorophenyl)ethyl]-amino]pyrrolo[2,3-d]-pyrimidin-7-yl]-3,4-dihydroxy-tetrahydro-furan-2-yl]methoxy-methylphosphonic acid], the IC50 (in assay [1]; on Human CD73) was < 10 nM in each case.

In the case of `C[C@H](Nc1nc(Cl)nc2c1ccn2[C@@H]1O[C@H](COCP(=O)(O)O)[C@@H](O)[C@H]1O)c1cccc(F)c1` [Compound 74, [(2R,3S,4R,5R)-5-[2-chloro-4-[[(1S)-1-(3-fluorophenyl)ethyl]-amino]pyrrolo[2,3-d]-pyrimidin-7-yl]-3,4-dihydroxy-tetrahydro-furan-2-yl]methoxy-methylphosphonic acid], the IC50 is 10 to 100 nM in assay [1] and < 10 nM on Human CD73.

Take `C[C@H](Nc1nc(C#N)nc2c1ccn2[C@@H]1O[C@H](COCP(=O)(O)O)[C@@H](O)[C@H]1O)c1cccc(F)c1` [Compound 75, [(2R,3S,4R,5R)-5-[2-cyano-4-[[(1S)-1-(3-fluorophenyl)ethyl]-amino]pyrrolo[2,3-d]-pyrimidin-7-yl]-3,4-dihydroxy-tetrahydro-furan-2-yl]methoxy-methylphosphonic acid]: the figures for the IC50 (in assay [1]; at Human CD73) were 10 to 100 nM and < 10 nM, respectively.

For `C[C@H](Nc1nc(Cl)nc2c1c(F)cn2[C@@H]1O[C@H](COCP(=O)(O)O)[C@@H](O)[C@H]1O)c1ccccc1` [Compound 76, ((((2R,3S,4R,5R)-5-(2-chloro-5-fluoro-4-(((S)-1-phenylethyl)amino)-7H-pyrrolo[2,3-d]pyrimidin-7-yl)-3,4-dihydroxytetrahydrofuran-2-yl)methoxy)methyl)phosphonic acid], the IC50 was 10 to 100 nM in assay [1] and < 10 nM at Human CD73.

With `CC[C@@H](Nc1nc(Cl)nc2c1ccn2[C@@H]1O[C@H](COCP(=O)(O)O)[C@@H](O)[C@H]1O)c1ccccc1` [Compound 77, [(2R,3S,4R,5R)-5-[2-chloro-4-[[(1R)-1-phenylpropyl]amino]-pyrrolo[2,3-d]-pyrimidin-7-yl]-3,4-dihydroxy-tetrahydro-furan-2-yl]methoxy-methylphosphonic acid], the IC50 (in assay [1]; on Human CD73) was 10 to 100 nM each time.

Turning to `CC(C)[C@@H](Nc1nc(Cl)nc2c1ccn2[C@@H]1O[C@H](COCP(=O)(O)O)[C@@H](O)[C@H]1O)c1ccccc1` [Compound 78], the values for the IC50 (in assay [1]; at Human CD73) were < 10 nM and 10 to 100 nM, respectively.

In general, IC50 refers to the concentration at which inhibition is half-maximal.
